# Read-outs that look alike come from different tables or passages of the source.
# How the values were obtained:
# [1] = tested on: nucleic acid; details: cited from earlier work
# [2] = Hydrolytic and thermal stability for pre-cast gel preparation and storage; format: physicochemical
# From the text: In a gel electrophoresis application, an agarose gel may be prepared by heating (via microwave, for example) a suspension of agarose powder in an electrophoresis buffer, such as lithium borate buffer, thereby producing a hot agarose solution, pouring the solution onto a slab, and cooling the solution, thereby producing a useful gel. […] For example, in a pre-cast gel staining application, SYBR Green I dye is generally combined with an agarose solution after the initial agarose suspension has been heated and the resulting agarose solution has been cooled as much as possible. Combining the SYBR Green I dye with the agarose solution in this manner may be a delicate task, as if the temperature of the agarose solution is too high, the dye my decompose, and if the temperature of the agarose solution is too low, the agarose solution may gel up such that the dye and the solution are inadequately combined or mixed. Further by way of example, in a pre-cast gel staining application, a pre-cast gel prepared with SYBR Green I is generally used within 24 hours, as it may lose utility thereafter. […] This dye may offer sufficient to exceptional stability, as well as low or minimal background fluorescence relative to EB and low or minimal toxicity relative to EB, as further described below.
# [3] = Stability of dye in gel electrophoresis buffer (room temperature, microwave heating); format: physicochemical
# [4] = test not named; cited from earlier work
# [5] = cited from earlier work
# [6] = tested on: cells; details: cited from earlier work
# [7] = tested on: aquatic life; details: in vivo; cited from earlier work
# [8] = pre-cast gel containing the dye
smiles,measurement,setting,value
"CN(C)c1ccc2cc3ccc(N(C)C)cc3nc2c1 [AO, Acridine orange]",affinity for nucleic acid,[1],very low
Nc1ccc2c(c1)c(-c1ccccc1)[n+](CCCCCC(=O)NCCCOCCOCCOCCCNC(=O)CCCCC[n+]1c(-c3ccccc3)c3cc(N)ccc3c3ccc(N)cc31)c1cc(N)ccc21 [Dye No. 35],hydrolytic and thermal stability for preparation of a pre-cast gel,[2],sufficient hydrolytic and thermal stability
same,storage of pre-cast gel without loss of performance,[2]; [8],at least 3 months
same,time heated in a microwave oven without decomposition,[3]; in TBE buffer,at least 10 minutes
same,time stable in electrophoresis buffer,"[3]; lithium borate buffer, room temperature",at least 6 months
"CC[n+]1c(-c2ccccc2)c2cc(N)ccc2c2ccc(N)cc21 [EB, ethidium bromide]",mutagenicity,[4],powerful mutagen
same,hydrolytic and thermal stability for preparation of a pre-cast gel,"[5]; reference dyes, general statement","sufficiently stable, both hydrolytically and thermally"
CN(C)c1ccc2cc3ccc(N(C)C)cc3[n+](CCCCCC(=O)NCCCOCCOCCOCCCNC(=O)CCCCC[n+]3c4cc(N(C)C)ccc4cc4ccc(N(C)C)cc43)c2c1.[I-].[I-] [GelGreen],cytotoxicity,[6],noncytotoxic
same,safety to aquatic life,[7],safe to aquatic life
Nc1ccc2c(c1)c(-c1ccccc1)[n+](CCCCCC(=O)NCCCOCCOCCOCCCNC(=O)CCCCC[n+]1c(-c3ccccc3)c3cc(N)ccc3c3ccc(N)cc31)c1cc(N)ccc21.[I-].[I-] [GelRed],cytotoxicity,[6],noncytotoxic
same,safety to aquatic life,[7],safe to aquatic life
CCCN(CCCN(C)C)c1cc(/C=C2/Sc3ccccc3N2C)c2ccccc2[n+]1-c1ccccc1 [SYBR Green I],cytotoxicity,[6],cytotoxic at relatively high concentrations
same,time within which pre-cast gel is used before losing utility,[5]; [8],≤ 24 h
CCCN1C=C/C(=C\c2sc3ccccc3[n+]2C)c2ccccc21 [SYBR Safe],cytotoxicity,[6],cytotoxic at relatively high concentrations
same,safety to aquatic life,[7],safe to aquatic life

# — US8877437B1, “Methods of using dyes in association with nucleic acid staining or detection” (Biotium, Inc., priority 2009, dated 2014)
